How the values were obtained:
[1] = system: receptor tyrosine kinases inhibited by the parent compound; design: method as in Mendel et al, 2000; conditions: ref Mendel et al, 2000; cited from earlier work
[2] = Plasma pharmacokinetics of SU5416 and metabolites in Phase I patients (HPLC UV); format: in vivo, human; conditions: plasma, patients
Method: Samples were taken prior to treatment infusion, 15 min into the infusion, at completion of the infusion and then at 5, 10, 20, 30, 45, 60, 120 and 240 min following the infusion. […] At the designated times, 4.0 ml of blood were collected into a lithium heparin tube, gently inverted and placed on ice to maintain the sample at 2–8°C. All samples were immediately centrifuged at 6000 r.p.m. at 4°C for 10 min, the supernatant divided between two 1.5 ml Nalgene cryovials and snap frozen in liquid nitrogen. Separated plasma samples were subsequently stored at −70°C until analysis.
Pharmacokinetic analysis was performed using a fully validated HPLC UV method ([Stopeck et al, 2002]). Plasma samples, standards (25–2000 ng ml^−1) and quality controls spiked with internal standards were extracted with acetonitrile. Following centrifugation, drying and reconstitution in 200 μl mobile phase, 20 μl were analysed by HPLC UV. Chromatography was carried out using a C18 analytical column, with a gradient mobile phase containing acetonitrile and 10 mM ammonium formate at pH 2.6. The flow rate was 0.8 ml min^−1 and the run-time 21 min. Detection was via UV absorption at a wavelength of 440 nm. The accuracy of the assay, reflected in relative error of measured concentration to theoretical (prepared) concentrations, was between 0.9 and 5.6% for all quality control samples.
Pharmacokinetic parameters were evaluated using WinNonLin Software®.

SMILES: Cc1cc(CO)[nH]c1/C=C1\C(=O)Nc2ccccc21 [SU9838]
- inhibitory activity for the receptor tyrosine kinases inhibited by the parent compound [1]: Neither metabolite shows inhibitory activity
- distribution and clearance of metabolite [2]: large volume of distribution and rapid clearance
- metabolite as proportion of the total [2]: 5.2%
